Activity calls are given as the source filed them. The rule behind the calls is not given here.
Assays:
[1] = tested on: Mus musculus; test: Anticonvulsant activity in ip dosed CF1 albino mouse assessed as protection against maximal electroshock-induced seizures after 4 hrs; assay type: functional; details: read-out: MED
[2] = tested on: Rattus norvegicus; test: Neurotoxicity in Sprague-Dawley albino rat assessed as motor impairment at 30 mg/kg, po after 4 hrs by rotarod test; assay type: toxicity, organism-based; design: dose 30 mg/kg, route oral; details: in vivo
[3] = tested on: Rattus norvegicus; test: Anticonvulsant activity in po dosed Sprague-Dawley albino rat assessed as time to peak effect; assay type: functional
[4] = tested on: Rattus norvegicus; test: Neurotoxicity in Sprague-Dawley albino rat assessed as motor impairment at 30 mg/kg, po after 2 hrs by rotarod test; assay type: toxicity, organism-based; design: dose 30 mg/kg, route oral; details: in vivo
[5] = organism: Rattus norvegicus; test: Protective index, ratio of TD50 for neurotoxicity in Sprague-Dawley albino rat to ED50 for inhibition of maximal electroshock-induced seizures in Sprague-Dawley albino rat; assay type: functional
[6] = tested on: Mus musculus; test: Anticonvulsant activity in ip dosed CF1 albino mouse assessed as protection against subcutaneous pentylenetetrazole-induced seizures after 4 hrs; assay type: functional; details: read-out: MED
[7] = tested on: Rattus norvegicus; test: Neurotoxicity in Sprague-Dawley albino rat assessed as motor impairment at 30 mg/kg, po after 0.5 hrs by rotarod test; assay type: toxicity, organism-based; design: dose 30 mg/kg, route oral; details: in vivo
[8] = Lipophilicity, log P of compound; assay type: physicochemical; details: octanol/water
[9] = tested on: Rattus norvegicus; test: Anticonvulsant activity in Sprague-Dawley albino rat assessed as protection against subcutaneous pentylenetetrazole-induced seizures at 50 mg/kg, po after 2 hrs; assay type: functional, organism-based; design: dose 50 mg/kg
[10] = tested on: Rattus norvegicus; test: Anticonvulsant activity in Sprague-Dawley albino rat assessed as protection against subcutaneous pentylenetetrazole-induced seizures at 50 mg/kg, po after 0.5 hrs; assay type: functional, organism-based; design: dose 50 mg/kg
[11] = Neurotoxicity in oral dosed Sprague-Dawley albino rat assessed as motor impairment by rotarod test; assay type: toxicity, organism-based; details: in vivo
[12] = tested on: Rattus norvegicus; test: Anticonvulsant activity in Sprague-Dawley albino rat assessed as protection against subcutaneous pentylenetetrazole-induced seizures at 50 mg/kg, po after 1 hrs; assay type: functional, organism-based; design: dose 50 mg/kg
[13] = tested on: Mus musculus; test: Anticonvulsant activity in ip dosed CF1 albino mouse assessed as protection against maximal electroshock-induced seizures after 0.5 hrs; assay type: functional; details: read-out: MED
[14] = tested on: Rattus norvegicus; test: Neurotoxicity in Sprague-Dawley albino rat assessed as motor impairment at 50 mg/kg, po after 2 hrs by rotarod test; assay type: toxicity, organism-based; design: dose 50 mg/kg, route oral; details: in vivo
[15] = tested on: Mus musculus; test: Neurotoxicity in CF1 albino mouse assessed as minimum dose causing loss of righting reflex at 300 mg/kg, ip after 4 hrs by rotarod test; assay type: toxicity, organism-based; design: dose 300 mg/kg, route intraperitoneal; details: in vivo
[16] = tested on: Rattus norvegicus; test: Neurotoxicity in Sprague-Dawley albino rat assessed as motor impairment at 50 mg/kg, po after 0.5 hrs by rotarod test; assay type: toxicity, organism-based; design: dose 50 mg/kg, route oral; details: in vivo
[17] = tested on: Rattus norvegicus; test: Neurotoxicity in Sprague-Dawley albino rat assessed as motor impairment at 50 mg/kg, po after 4 hrs by rotarod test; assay type: toxicity, organism-based; design: dose 50 mg/kg, route oral; details: in vivo
[18] = tested on: Mus musculus; test: Anticonvulsant activity in ip dosed CF1 albino mouse assessed as protection against subcutaneous pentylenetetrazole-induced seizures after 0.5 hrs; assay type: functional; details: read-out: MED
[19] = tested on: Mus musculus; test: Neurotoxicity in CF1 albino mouse assessed as loss of rotard grasping at 300 mg/kg, ip after 0.5 hrs by rotarod test; assay type: toxicity, organism-based; design: dose 300 mg/kg, route intraperitoneal; details: in vivo
[20] = tested on: Rattus norvegicus; test: Neurotoxicity in Sprague-Dawley albino rat assessed as motor impairment at 30 mg/kg, po after 1 hrs by rotarod test; assay type: toxicity, organism-based; design: dose 30 mg/kg, route oral; details: in vivo
[21] = tested on: Rattus norvegicus; test: Neurotoxicity in Sprague-Dawley albino rat assessed as motor impairment at 50 mg/kg, po after 0.25 hrs by rotarod test; assay type: toxicity, organism-based; design: dose 50 mg/kg, route oral; details: in vivo
[22] = tested on: Rattus norvegicus; test: Neurotoxicity in Sprague-Dawley albino rat assessed as motor impairment at 30 mg/kg, po after 0.25 hrs by rotarod test; assay type: toxicity, organism-based; design: dose 30 mg/kg, route oral; details: in vivo
[23] = tested on: Rattus norvegicus; test: Neurotoxicity in Sprague-Dawley albino rat assessed as motor impairment at 50 mg/kg, po after 1 hrs by rotarod test; assay type: toxicity, organism-based; design: dose 50 mg/kg, route oral; details: in vivo
[24] = tested on: Rattus norvegicus; test: Anticonvulsant activity in Sprague-Dawley albino rat assessed as protection against subcutaneous pentylenetetrazole-induced seizures at 50 mg/kg, po after 0.25 hrs; assay type: functional, organism-based; design: dose 50 mg/kg
[25] = tested on: Rattus norvegicus; test: Anticonvulsant activity in po dosed Sprague-Dawley albino rat assessed as protection against maximal electroshock-induced seizures; assay type: functional
[26] = tested on: Mus musculus; test: Neurotoxicity in CF1 albino mouse assessed as tremors at 300 mg/kg, ip after 0.5 hrs by rotarod test; assay type: toxicity, organism-based; design: dose 300 mg/kg, route intraperitoneal; details: in vivo
[27] = tested on: Mus musculus; test: Neurotoxicity in CF1 albino mouse assessed as loss of rotard grasping at 300 mg/kg, ip after 4 hrs by rotarod test; assay type: toxicity, organism-based; design: dose 300 mg/kg, route intraperitoneal; details: in vivo
[28] = tested on: Rattus norvegicus; test: Anticonvulsant activity in Sprague-Dawley albino rat assessed as protection against subcutaneous pentylenetetrazole-induced seizures at 50 mg/kg, po after 4 hrs; assay type: functional, organism-based; design: dose 50 mg/kg
[29] = organism: Rattus norvegicus
Description: Protective index, ratio of TD50 for neurotoxicity in Sprague-Dawley albino rat to ED50 for inhibition of subcutaneous pentylenetetrazole-induced seizures in Sprague-Dawley albino rat

[30] = tested on: Mus musculus; test: Neurotoxicity in CF1 albino mouse assessed as impair in motor coordination at 300 mg/kg, ip after 4 hrs by rotarod test; assay type: toxicity, organism-based; design: dose 300 mg/kg, route intraperitoneal; details: in vivo
[31] = tested on: Mus musculus; test: Anticonvulsant activity in CF1 albino mouse assessed as protection against maximal electroshock-induced seizures at 300 mg/kg, ip after 4 hrs; assay type: functional, organism-based; design: dose 300 mg/kg
[32] = tested on: Mus musculus; test: Neurotoxicity in CF1 albino mouse assessed as impair in motor coordination at 300 mg/kg, ip after 0.5 hrs by rotarod test; assay type: toxicity, organism-based; design: dose 300 mg/kg, route intraperitoneal; details: in vivo
[33] = tested on: Mus musculus; test: Anticonvulsant activity in CF1 albino mouse assessed as protection against maximal electroshock-induced seizures at 300 mg/kg, ip after 0.5 hrs; assay type: functional, organism-based; design: dose 300 mg/kg
[34] = Neurotoxicity in ip dosed CF1 albino mouse assessed as impair in motor coordination by rotarod test; assay type: toxicity, organism-based; details: in vivo
[35] = tested on: Mus musculus; test: Anticonvulsant activity in CF1 albino mouse assessed as time to peak effect at 100 mg/kg, ip; assay type: functional; details: route intraperitoneal
[36] = tested on: Mus musculus; test: Neurotoxicity in ip dosed CF1 albino mouse assessed as minimum dose required to cause impair in motor coordination after 4 hrs by rotarod test; assay type: toxicity, organism-based; details: in vivo
[37] = tested on: Mus musculus; test: Toxicity in subcutaneous pentylenetetrazole-induced CF1 albino mouse assessed as myoclonic jerks at 100 mg/kg, ip after 0.5 hrs; assay type: organism-based; design: dose 100 mg/kg; details: in vivo, sc
[38] = tested on: Mus musculus; test: Toxicity in subcutaneous pentylenetetrazole-induced CF1 albino mouse assessed as myoclonic jerks at 100 mg/kg, ip after 4 hrs; assay type: organism-based; design: dose 100 mg/kg; details: in vivo, sc
[39] = tested on: Mus musculus; test: Neurotoxicity in ip dosed CF1 albino mouse assessed as minimum dose required to cause impair in motor coordination after 0.5 hrs by rotarod test; assay type: toxicity, organism-based; details: in vivo
[40] = tested on: Mus musculus; test: Toxicity in subcutaneous pentylenetetrazole-induced CF1 albino mouse assessed as myoclonic jerks at 300 mg/kg, ip after 0.5 hrs; assay type: organism-based; design: dose 300 mg/kg; details: in vivo, sc
[41] = tested on: Rattus norvegicus; test: Anticonvulsant activity in Sprague-Dawley albino rat assessed as protection against maximal electroshock-induced seizures at 30 mg/kg, po after 0.5 hrs; assay type: functional, organism-based; design: dose 30 mg/kg
[42] = tested on: Mus musculus; test: Toxicity in subcutaneous pentylenetetrazole-induced CF1 albino mouse assessed as myoclonic jerks at 300 mg/kg, ip after 4 hrs; assay type: organism-based; design: dose 300 mg/kg; details: in vivo, sc
[43] = tested on: Rattus norvegicus; test: Anticonvulsant activity in Sprague-Dawley albino rat assessed as protection against maximal electroshock-induced seizures at 30 mg/kg, po after 0.25 hrs; assay type: functional, organism-based; design: dose 30 mg/kg
[44] = tested on: Rattus norvegicus; test: Anticonvulsant activity in Sprague-Dawley albino rat assessed as protection against maximal electroshock-induced seizures at 30 mg/kg, po after 4 hrs; assay type: functional, organism-based; design: dose 30 mg/kg

Row | Compound | minimal effective dose [1] [mg/kg] | Activity [2] | Time [3] [h] | Activity [4] | minimal effective dose [6] [mg/kg] | Activity [7] | logP [8] | TD50 [11] [mg/kg] | minimal effective dose [13] [mg/kg] | minimal effective dose [18] [mg/kg] | Activity [20] | Activity [22] | ED50 [25] [mg/kg] | Activity [30] | Activity [32] | further results
1 | O=C1NC(c2ccccc2)(C2CC2)C(=O)N1CN1CCOCC1 (centres undefined) | 30 | Non-toxic | 4 | Non-toxic | 300 | Non-toxic | 1.33 | < 150 | 100 | 30 | Non-toxic | Non-toxic | 13.9 |  |  | PI [5]: <10.79; Activity [9]: Active; Activity [10]: inactive; Activity [12]: inactive; Activity [14]: Non-toxic; Activity [15]: Toxic; Activity [16]: Non-toxic; Activity [17]: Non-toxic; Activity [19]: Toxic; Activity [21]: Non-toxic; Activity [23]: Non-toxic; Activity [24]: inactive
2 | CCOC(=O)N1CCN(CN2C(=O)NC(c3ccccc3)(C3CC3)C2=O)CC1 (centres undefined) | 100 |  |  |  | 300 |  | 1.76 |  | 100 | 100 |  |  |  |  |  | Activity [26]: Toxic; Activity [27]: Toxic; Activity [19]: Toxic
3 | CCC1(C)CC(=O)NC1=O (centres undefined) [ETHOSUXIMIDE] |  |  | 2 |  | 300 |  |  | > 500 |  | 100 |  |  | > 500 | Non-toxic | Non-toxic | Activity [28]: inactive; PI [29]: >3; Activity [31]: inactive; Activity [14]: Non-toxic; Activity [16]: Non-toxic; Activity [17]: Non-toxic; Activity [33]: inactive; Activity [21]: Non-toxic; Activity [23]: Non-toxic; Activity [24]: inactive
4 | CC[C@@H](C(N)=O)N1CCCC1=O |  |  |  |  |  |  |  |  |  |  |  |  |  |  |  | TD50 [34]: > 500 mg/kg; Time [35]: 1 h
5 | COCCN1CCN(CN2C(=O)NC(c3ccccc3)(C3CC3)C2=O)CC1 (centres undefined) | 100 |  |  |  |  |  | 1.46 |  | 100 |  |  |  |  |  |  | MTC [36]: 30 mg/kg; Activity [37]: Toxic; Activity [38]: Toxic; MTC [39]: 30 mg/kg
6 | O=C1NC(c2ccc(Cl)cc2)(C2CC2)C(=O)N1CN1CCN(CCc2ccccc2)CC1 (centres undefined) | 300 |  |  |  |  |  | 3.97 |  | 300 |  |  |  |  |  |  | MTC [36]: 30 mg/kg; Activity [40]: Toxic; Activity [38]: Toxic; MTC [39]: 30 mg/kg
7 | O=C(c1ccccc1)N1CCN(CN2C(=O)NC(c3ccccc3)(C3CC3)C2=O)CC1 (centres undefined) | 100 | Non-toxic |  | Non-toxic |  | Non-toxic | 2.17 |  | 100 |  | Non-toxic | Non-toxic |  | Non-toxic | Non-toxic | Activity [37]: Toxic; Activity [41]: inactive; Activity [42]: Toxic; Activity [43]: inactive
8 | O=C(OCc1ccccc1)N1CCN(CN2C(=O)NC(c3ccccc3)(C3CC3)C2=O)CC1 (centres undefined) | 100 | Non-toxic | 6 | Non-toxic |  | Non-toxic | 2.92 | > 60 | 300 |  | Non-toxic | Non-toxic | 10 | Non-toxic | Non-toxic | PI [5]: >5.98; Activity [40]: Toxic; Activity [41]: inactive; Activity [42]: Toxic; Activity [44]: Active; Activity [43]: inactive
